PubChem BioAssay AID2060622 (Molecular Pharmacology Branch, DTP, NCI, 2025)
pIC50: −log10 of the molar value. “And” between values parts separate entries of the source, which are not always exact repeats. Identical values can stand only once.

System: 242566-281-R-J2-PDC complex spheroid viability
Assay: Anticancer human tumor 242566-281-R-J2-PDC patient-derived pancreatic carcinoma cell line growth inhibition [CLK]
Conditions: for viability, T/C: stronger effect = lower value
Description: A high-throughput screen of multi-cell type tumor spheroids was designed to identify active combinations of […] and targeted small molecules. Complex spheroids include a stromal component modeled by human endothelial cells (HUVEC) and fibroblasts modeled by human mesenchymal stem cells (MSCs). The concentration ranges selected for each drug and investigational agent were based upon clinically achievable concentrations if the clinical Cmax of the agent was known.
Compounds. The drugs and investigational agents: cirtuvivint (SM08502; NSC835563), CC-671 (NSC850746), vemurafenib (NSC761431), tapotoclax (NSC804041), sotorasib (NSC818433), adagrasib (NSC831453), MRTX-1133 (NSC836407), BAY2416964 (NSC825713), copanlisib (NSC816437), inavolisib (NSC800729), abemaciclib (NSC768073), osimertinib (NSC779217), entinostat (NSC756642), eltanexor (KPT-8602, NSC794443), venetoclax (NSC766270), ceralasertib (NSC777638), bortezomib (NSC756655), olaparib (NSC753686), talazoparib (NSC767125), alisertib (NSC759677), peposertib (NSC802822), gemcitabine (NSC613327), 5-fluorouracil (NSC19893), SN-38 (NSC673596), oxaliplatin (NSC266046), paclitaxel (NSC125973), and doxorubicin (NSC123127), were obtained from the National Cancer Institute (NCI) Developmental Therapeutics Program Chemical Repository. The FDA-approved anticancer drug set is available from the Developmental Therapeutics Program at https://dtp.cancer.gov/organization/dscb/obtaining/available plates.htm. […] The stock solutions were prepared in dimethyl sulfoxide (DMSO, Sigma-Aldrich, St. Louis, MO, cat. D2650), except for the platinum complexes which were prepared in saline (Quality Biological, Gaithersburg, MD, cat. 114-055-101), at 800-fold the tested concentration and stored at -70 degrees C prior to their use. All drugs and investigational agents were tested over a range starting from a high concentration at or near the clinical Cmax and decreasing in half-log increments. If the clinical Cmax for an agent had not been determined, the highest concentration tested was 10 microM.
Cell Culture. All cells were maintained in an incubator at 37 degrees C and 5% CO2 with 95% humidity. The PDC lines were cultured according to standard operating procedures established by the NCI PDMR. Briefly, all PDCs were thawed and cultured in Matrigel-coated flasks prepared with a working solution of 1X Ham's F-12 nutrient mix, without supplementation (Invitrogen, Waltham, MA, cat. 11765054), 100 U/mL penicillin-streptomycin (Invitrogen, cat. 15140122), and 2.5% Matrigel (Corning Inc., Corning, NY, cat. 354248) for the first three passages. The 947758-054-R-J2-PDC line was cultured in 6B/Colon 1A media, which includes advanced DMEM/F-12 (Thermo Fisher Scientific, cat. 12634028), 10 mM HEPES (Thermo Fisher Scientific, cat. 15630080), 1X GlutaMAX supplement (Thermo Fisher Scientific, cat. 35050061), 0.1 mg/mL primocin (InvivoGen, cat. ant-pm-2), 10% defined fetal bovine serum, heat inactivated (HyClone Laboratories Inc., cat. SH30070.03HI), 1.25 mM N-Acetyl-L-cysteine (Sigma-Aldrich, cat. A9165), 10 mM nicotinamide (Sigma-Aldrich, cat. N0636), 1X B-27 supplement (Thermo Fisher Scientific, cat. 17504044), 1X N-2 supplement (Thermo Fisher Scientific, cat. 17502048), and 10 microM Y-27632 dihydrochloride (Tocris Bioscience, cat. 1254). The 876862-298-R-J1-PDC was cultured in 6E media, which includes all 6B/Colon 1A media components plus 50% L-WRN conditioned media (ATCC, cat. CRL-3276), 50 ng/mL recombinant human EGF recombinant protein (hEGF; Thermo Fisher Scientific, cat. PHG0311), 10 ng/mL recombinant human fibroblast growth factor 10 (hGFG-10; PeproTech, cat. 100-26), 1 ng/mL recombinant human fibroblast growth factor 2 (hFGF-2; PeproTech, cat. 100-18B), and 1 µM prostaglandin E2 (PGE2; Tocris, cat. 2296). The 227483-062-R1-J1-PDC line was cultured in Panc media, containing all 6E components except hFGF-2, with the addition of 500 nM SB-431542 (Selleckchem, cat. S1067) and 10 nM gastrin (Tocris, cat. 3006). […]

[1] = curve of first compound, second compound 0.0316 µM
[2] = curve of first compound, second compound 0.1 µM
[3] = curve of first compound, second compound 0.316 µM
[4] = curve of first compound, second compound 1 µM
[5] = curve of first compound, second compound 3.16 µM
[6] = curve of first compound, second compound 10 µM
[7] = second compound 0.0316 µM, first compound 0.0316 µM
[8] = second compound 0.0316 µM, first compound 0.1 µM
[9] = second compound 0.0316 µM, first compound 0.316 µM
[10] = second compound 0.0316 µM, first compound 1 µM
[11] = second compound 0.0316 µM, first compound 3.16 µM
[12] = second compound 0.0316 µM, first compound 10 µM
[13] = second compound 0.1 µM, first compound 0.0316 µM
[14] = second compound 0.1 µM, first compound 0.1 µM
[15] = second compound 0.1 µM, first compound 0.316 µM
[16] = second compound 0.1 µM, first compound 1 µM
[17] = second compound 0.1 µM, first compound 3.16 µM
[18] = second compound 0.1 µM, first compound 10 µM
[19] = second compound 0.316 µM, first compound 0.0316 µM
[20] = second compound 0.316 µM, first compound 0.1 µM
[21] = second compound 0.316 µM, first compound 0.316 µM
[22] = second compound 0.316 µM, first compound 1 µM
[23] = second compound 0.316 µM, first compound 3.16 µM
[24] = second compound 0.316 µM, first compound 10 µM
[25] = second compound 1 µM, first compound 0.0316 µM
[26] = second compound 1 µM, first compound 0.1 µM
[27] = second compound 1 µM, first compound 0.316 µM
[28] = second compound 1 µM, first compound 1 µM
[29] = second compound 1 µM, first compound 3.16 µM
[30] = second compound 1 µM, first compound 10 µM
[31] = second compound 3.16 µM, first compound 0.0316 µM
[32] = second compound 3.16 µM, first compound 0.1 µM
[33] = second compound 3.16 µM, first compound 0.316 µM
[34] = second compound 3.16 µM, first compound 1 µM
[35] = second compound 3.16 µM, first compound 3.16 µM
[36] = second compound 3.16 µM, first compound 10 µM
[37] = second compound 10 µM, first compound 0.0316 µM
[38] = second compound 10 µM, first compound 0.1 µM
[39] = second compound 10 µM, first compound 0.316 µM
[40] = second compound 10 µM, first compound 1 µM
[41] = second compound 10 µM, first compound 3.16 µM
[42] = second compound 10 µM, first compound 10 µM
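Further: spheroids exposed to compounds for 7 days before readout.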
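Wherever viability, T/C is given: 100% = DMSO vehicle control wells.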

With `C=C(F)C(=O)N1CCN(c2nc(OCC3CCCN3C)nc3c2CCN(c2cccc4cccc(Cl)c24)C3)CC1CC#N` (stereo not given) + CN1CCN(c2cc(C(=O)Nc3cc4cc(-c5cnn(C)c5)ccc4cn3)ccn2)CC1 the pIC50 [1] was 5.30, the pIC50 [2] was 5.37 and the pIC50 [3] was > 7.50. The pIC50 [4] was > 7.50, the pIC50 [5] was > 7.50 and the pIC50 [6] was > 7.50. It also gave a viability, T/C [7] of 84.6%, a viability, T/C [8] of 115% and a viability, T/C [9] of 104%. The viability, T/C [10] was 114%, the viability, T/C [11] was 82.7% and the viability, T/C [12] was 0.15%. The viability, T/C [13] was 103%, the viability, T/C [14] was 95.9% and the viability, T/C [15] was 90.9%. The viability, T/C [16] was 90.2%, the viability, T/C [17] was 67.7% and the viability, T/C [18] was 0.87%. The viability, T/C [19] was 42.9%, the viability, T/C [20] was 38.7% and the viability, T/C [21] was 50.4%. For the same molecule, the viability, T/C [22] was 41.3%, the viability, T/C [23] was 25.2% and the viability, T/C [24] was 0.12%. The viability, T/C [25] was 4.94%, the viability, T/C [26] was 4.71% and the viability, T/C [27] was 4.65%. For the same molecule, the viability, T/C [28] was 4.68%, the viability, T/C [29] was 3.14% and the viability, T/C [30] was 0.13%. For the same molecule, the viability, T/C [31] was 7.96%, the viability, T/C [32] was 8.51% and the viability, T/C [33] was 7.38%. It also gave a viability, T/C [34] of 6.75%, a viability, T/C [35] of 4.99% and a viability, T/C [36] of 0.12%. The viability, T/C [37] was 2.22%, the viability, T/C [38] was 2.75% and the viability, T/C [39] was 2.19%. For the same molecule, the viability, T/C [40] was 1.43%, the viability, T/C [41] was 0.37% and the viability, T/C [42] was 0.24%.
In the case of `CC1COCCN1c1cc(C2(S(C)(=N)=O)CC2)nc(-c2ccnc3[nH]ccc23)n1` (stereo not given), the viability, T/C (compound 0.0316 µM) was 108% and 90.3%, the viability, T/C (compound 0.1 µM) was 104% and 84.2% and the viability, T/C (compound 0.316 µM) was 106% and 81%. The viability, T/C (compound 1 µM) was 108% and 90.7%, the viability, T/C (compound 3.16 µM) was 75.2% and 90.5% and the viability, T/C (compound 10 µM) was 37.9% and 60.6%. The pIC50 (curve of compound) was 5.16 and < 5.00.
In the case of `CC(Nc1ccc2c(c1)OCCn1cc(N3C(=O)OCC3C(F)F)nc1-2)C(N)=O` (stereo not given), the viability, T/C (compound 0.0316 µM) was 98.6% and 96.1%, the viability, T/C (compound 0.1 µM) was 91.6% and 97.8% and the viability, T/C (compound 0.316 µM) was 71.3% and 89.9%. For the same molecule, the viability, T/C (compound 1 µM) was 51.9% and 68.2%, the viability, T/C (compound 3.16 µM) was 36.4% and 46.8% and the viability, T/C (compound 10 µM) was 21.7% and 32.6%. For the same molecule, the pIC50 (curve of compound) was 5.93 and 5.60.
For `COC1C=CCC(C)C(C)S(=O)(=O)NC(=O)c2ccc3c(c2)N(CC2CCC21)CC1(CCCc2cc(Cl)ccc21)CO3` (stereo not given), the viability, T/C (compound 0.0316 µM) was 91.1% and 108%, the viability, T/C (compound 0.1 µM) was 69.8% and 78.5% and the viability, T/C (compound 0.316 µM) was 82.5% and 70.2%. For the same molecule, the viability, T/C (compound 1 µM) was 92.6% and 93.4%, the viability, T/C (compound 3.16 µM) was 82.5% and 81.2% and the viability, T/C (compound 10 µM) was 19.6% and 30.2%. For the same molecule, the pIC50 (curve of compound) was 5.24 and 5.19.
With `COc1cccc2c1C(=O)c1c(O)c3c(c(O)c1C2=O)CC(O)(C(=O)CO)CC3OC1CC(N)C(O)C(C)O1` (stereo not given) + CNC(=O)c1ccc(Nc2nc(OC3CCCC3)c3c(-c4ccc5nc(C)oc5c4)c[nH]c3n2)c(OC)c1 the pIC50 [1] was 6.73, the pIC50 [2] was 6.80 and the pIC50 [3] was 6.99. For the same molecule, the pIC50 [4] was 7.50, the pIC50 [5] was > 7.50 and the pIC50 [6] was > 7.50. It also gave a viability, T/C [7] of 86.6%, a viability, T/C [8] of 64.8% and a viability, T/C [9] of 37%. The viability, T/C [10] was 16.4%, the viability, T/C [11] was 6.4% and the viability, T/C [12] was 1.62%. For the same molecule, the viability, T/C [13] was 86.8%, the viability, T/C [14] was 64.7% and the viability, T/C [15] was 27.8%. For the same molecule, the viability, T/C [16] was 16%, the viability, T/C [17] was 6.66% and the viability, T/C [18] was 1.48%. It also gave a viability, T/C [19] of 80.4%, a viability, T/C [20] of 51.2% and a viability, T/C [21] of 15.9%. It also gave a viability, T/C [22] of 10.4%, a viability, T/C [23] of 1.13% and a viability, T/C [24] of 1.75%. The viability, T/C [25] was 50.1%, the viability, T/C [26] was 20.2% and the viability, T/C [27] was 6.31%. The viability, T/C [28] was 2.71%, the viability, T/C [29] was 1.6% and the viability, T/C [30] was 1.45%. The viability, T/C [31] was 37.1%, the viability, T/C [32] was 11.2% and the viability, T/C [33] was 3.77%. For the same molecule, the viability, T/C [34] was 1.91%, the viability, T/C [35] was 1.71% and the viability, T/C [36] was 1.85%. It also gave a viability, T/C [37] of 31.5%, a viability, T/C [38] of 10.5% and a viability, T/C [39] of 3.98%. For the same molecule, the viability, T/C [40] was 1.91%, the viability, T/C [41] was 1.68% and the viability, T/C [42] was 2.07%.
